From PubChem BioAssay (NCI)
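Dose response: 5 concentrations. Exposure: 48 h. Format: 96-well plates. Endpoint: linear interpolation; highest concentration if not reached. At the GI50, growth is halved. TGI: total growth inhibition.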

Key:
Test in all cases: DTP human tumour cell line panel, 48 h
SF-295 CNS = system: SF-295 CNS
NCI-H226 lung = system: NCI-H226 lung
K-562 leukemia = system: K-562 leukemia
HCT-116 colon = system: HCT-116 colon
RPMI-8226 leukemia = system: RPMI-8226 leukemia
NCI-H522 lung = system: NCI-H522 lung
HCT-15 colon = system: HCT-15 colon
NCI-H460 lung = system: NCI-H460 lung
DU-145 prostate = system: DU-145 prostate
CAKI-1 renal = system: CAKI-1 renal

SMILES | TGI (SF-295 CNS) [µM] | TGI (NCI-H226 lung) [µM] | TGI (K-562 leukemia) [µM] | TGI (HCT-116 colon) [µM] | TGI (RPMI-8226 leukemia) [µM] | TGI (NCI-H522 lung) [µM] | TGI (HCT-15 colon) [µM] | TGI (NCI-H460 lung) [µM] | TGI (DU-145 prostate) [µM] | TGI (CAKI-1 renal) [µM] | GI50 (DU-145 prostate) [µM] | GI50 (K-562 leukemia) [µM] | GI50 (HCT-116 colon) [µM] | GI50 (RPMI-8226 leukemia) [µM] | GI50 (CAKI-1 renal) [µM] | GI50 (HCT-15 colon) [µM] | GI50 (NCI-H460 lung) [µM] | GI50 (SF-295 CNS) [µM] | GI50 (NCI-H226 lung) [µM] | GI50 (NCI-H522 lung) [µM]
CC(C)(C)OC(=O)NC1CCC(C(C)(C)C)CC1 (stereo unspecified) | > 55.3 | > 100 | > 100 | > 100 | > 100 | > 100 | > 100 | > 100 | – | – | – | – | – | – | – | – | – | – | – | –
CC(C)(C)c1ccc(/C=N/NC(=O)CSCC(=O)N/N=C/c2ccc(C(C)(C)C)cc2)cc1 | – | 4.93 | 6.7 | – | > 100 | 21.9 | 15.8 | 15 | > 100 | – | – | – | – | – | – | – | – | – | – | –
Nc1nc(Nc2ccccc2)sc1C(=O)c1cccs1 | 66.6 | 39.7 | 55.7 | 18.2 | 37 | 25.9 | 27.2 | 24.5 | 30.8 | 62.3 | – | – | – | – | – | – | – | – | – | –
O=C(Nc1ccc(Cl)c(Cl)c1)N1N=C2c3ccccc3CCC2C1c1ccc(Cl)cc1 (stereo unspecified) | > 100 | > 100 | > 100 | > 100 | > 100 | > 100 | > 100 | > 100 | > 100 | > 100 | – | – | – | – | – | – | – | – | – | –
C=CCSSCC=C | > 100 | > 92.6 | > 100 | > 100 | > 80.4 | > 100 | > 100 | > 100 | > 100 | > 100 | – | – | – | – | – | – | – | – | – | –
O[C@@H]1C[C@H]2N3CC[C@@]2(c2cc4c(cc2C3)OCO4)[C@H]2O[C@@H]12 | > 100 | 0.0792 | > 100 | > 100 | > 100 | > 100 | > 100 | > 100 | > 100 | > 100 | – | – | – | – | – | – | – | – | – | –
C[C@]12CC[C@H](O)CC1=CC[C@@H]1[C@@H]2CC[C@]2(C)C(=N/O)/C(=C/c3ccc([N+](=O)[O-])cc3)C[C@@H]12 | 10.7 | 6.59 | 59.9 | 15.7 | 50.6 | 16.4 | 29.8 | 18.5 | 21.6 | 32.9 | – | – | – | – | – | – | – | – | – | –
Cn1c2c3ccc(Cl)cc3nc-2c(Cl)c2ccccc21 | 36.6 | 62.5 | > 100 | 4.99 | > 100 | 33.6 | 47.1 | 43.8 | 33.4 | 32.1 | – | – | – | – | – | – | – | – | – | –
Cc1cc(C)nc(SCCc2cccc[n+]2C)n1 | > 100 | > 100 | > 100 | > 100 | > 100 | > 100 | > 100 | > 100 | > 100 | > 100 | – | – | – | – | – | – | – | – | – | –
Clc1ccc(-c2ccc(-c3nn4c(CNc5ccccc5)nnc4s3)o2)c(Cl)c1 | > 100 | > 100 | > 100 | > 100 | > 100 | > 100 | > 100 | > 100 | > 100 | > 100 | – | – | – | – | – | – | – | – | – | –
SC1CCCN(Cc2ccccc2)C1 (stereo unspecified) | > 100 | > 100 | 60.6 | > 100 | 46.6 | > 100 | > 100 | 64.7 | > 100 | > 100 | – | – | – | – | – | – | – | – | – | –
COc1cc(S(=O)(=O)Nc2nc(-c3ccc(N4C(=O)/C(=C/c5ccccc5[N+](=O)[O-])N=C4c4ccccc4)cc3)cs2)ccc1Cl | > 100 | > 100 | > 100 | > 100 | – | > 100 | > 100 | > 100 | > 100 | > 100 | – | – | – | – | – | – | – | – | – | –
O=C(Oc1ccc(Cl)cc1[N+](=O)[O-])c1ccccc1 | > 100 | > 100 | > 100 | > 100 | > 100 | – | > 100 | > 100 | – | – | – | – | – | – | – | – | – | – | – | –
CC(=O)OCCOc1cc2c([nH]c3ccccc32)c(C)c2cccc1-2 | 15.2 | 25 | > 100 | 13.1 | > 26.4 | 4.29 | 10.3 | 7.6 | 15.8 | 6.14 | – | – | – | – | – | – | – | – | – | –
O=C1CCCC2C3CC(CN12)C1CCCCN1C3 (stereo unspecified) | > 100 | > 100 | – | > 100 | > 100 | > 100 | > 100 | > 100 | > 100 | > 100 | – | – | – | – | – | – | – | – | – | –
COC(=O)Nc1nc2ccc(NC(=O)c3cccs3)cc2[nH]1 | > 100 | > 100 | > 100 | > 100 | 46.4 | – | > 100 | > 100 | > 100 | > 100 | – | – | – | – | – | – | – | – | – | –
O=C1C(Cl)C(c2cc3cc(Br)ccc3nc2Cl)N1c1ccc(Cl)cc1 (stereo unspecified) | > 25 | 12.3 | 19.8 | 12.5 | 14.1 | 8.25 | 13.3 | 20.9 | 19.7 | 9.3 | – | – | – | – | – | – | – | – | – | –
CCCC(=O)O.CCCC(=O)O.CCCC(=O)O.CCCC(=O)O.[Rh].[Rh] | – | – | 0.273 | 0.0433 | 0.112 | – | 0.762 | 0.327 | 0.491 | 0.106 | 0.181 | 0.026 | 0.0198 | 0.0243 | 0.035 | 0.155 | 0.165 | – | – | –
c1ccc(C[N+]23CN4CN(CN(C4)C2)C3)cc1 | > 100 | > 100 | 86.2 | 85.3 | 57.2 | > 100 | > 100 | > 100 | 91.8 | > 100 | – | – | – | – | – | – | – | – | – | –
O=C(COc1ccc(Cl)c(Cl)c1)N(Cc1ccccc1)Cc1ccc[n+](Cc2ccc(Cl)cc2S(=O)(=O)F)c1 | > 100 | > 100 | > 100 | > 100 | 28.4 | > 100 | > 100 | > 100 | > 100 | > 100 | – | – | – | – | – | – | – | – | – | –
CN1CC(CNC(=O)OCc2ccccc2)CC2c3cccc4c3c(cn4C)CC21 (stereo unspecified) | 4.76 | 9.06 | 4.44 | 4.18 | 5.36 | 3.33 | 3.52 | 3.55 | 14.4 | 3.65 | 3.88 | 1.69 | 1.72 | 2.14 | 1.68 | 1.69 | 1.83 | 2.09 | 2.82 | 1.73
C=CCNS(=O)(=O)c1ncnc2nc[nH]c12 | > 100 | > 100 | > 100 | > 100 | > 100 | > 100 | > 100 | – | > 100 | > 100 | – | – | – | – | – | – | – | – | – | –
COc1c(OC/C=C(\C)CCC=C(C)C)ccc2ccc(=O)oc12 | > 100 | – | > 100 | > 100 | > 100 | > 100 | > 100 | – | > 100 | > 100 | – | – | – | – | – | – | – | – | – | –
O=C(c1cc2c(c3ccccc13)NCCN=C2C(F)(F)F)C(F)(F)F | 50.1 | 47.1 | 35.4 | > 100 | 27.4 | 72.7 | > 100 | 34.4 | > 100 | > 100 | – | – | – | – | – | – | – | – | – | –
O=C1OC2CC=CC1C2 (stereo unspecified) | > 100 | > 100 | > 100 | > 100 | > 100 | > 100 | > 100 | > 100 | – | – | – | – | – | – | – | – | – | – | – | –
CC(=O)NNC(=O)C1CCCCN1 (stereo unspecified) | > 100 | > 100 | > 100 | > 100 | > 100 | > 100 | > 100 | > 100 | > 100 | > 100 | – | – | – | – | – | – | – | – | – | –
C=C1C(=O)OC2CC1CCC1(C)OC1CCC(C)=CCCC2(C)O (stereo unspecified) | 33.8 | 9.17 | 13.7 | 8.7 | 7.18 | 3.69 | 7.79 | 7.85 | – | 7.7 | – | – | – | – | – | – | – | – | – | –
CC[C@]12C=CCN3CC[C@@]4(c5cc(Br)c(OC)cc5N(C)[C@H]4[C@@](O)(C(=O)N[C@@H](Cc4ccc(O)cc4)C(=O)OC)[C@@H]1O)[C@@H]32 | 38.7 | – | > 100 | > 100 | 36 | 54.4 | 76.3 | 40.5 | > 100 | 77.9 | – | – | – | – | – | – | – | – | – | –
O=C(/C=C/c1ccccc1)N1CCCCC1 | > 100 | > 100 | > 100 | > 100 | > 100 | > 100 | > 100 | > 100 | > 100 | > 100 | – | – | – | – | – | – | – | – | – | –
